Assay [1] concerns the target T1, Mitogen-activated protein kinase kinase kinase kinase 2 (Homo sapiens) (UniProt Q12851).
T1 sequence (whole entry): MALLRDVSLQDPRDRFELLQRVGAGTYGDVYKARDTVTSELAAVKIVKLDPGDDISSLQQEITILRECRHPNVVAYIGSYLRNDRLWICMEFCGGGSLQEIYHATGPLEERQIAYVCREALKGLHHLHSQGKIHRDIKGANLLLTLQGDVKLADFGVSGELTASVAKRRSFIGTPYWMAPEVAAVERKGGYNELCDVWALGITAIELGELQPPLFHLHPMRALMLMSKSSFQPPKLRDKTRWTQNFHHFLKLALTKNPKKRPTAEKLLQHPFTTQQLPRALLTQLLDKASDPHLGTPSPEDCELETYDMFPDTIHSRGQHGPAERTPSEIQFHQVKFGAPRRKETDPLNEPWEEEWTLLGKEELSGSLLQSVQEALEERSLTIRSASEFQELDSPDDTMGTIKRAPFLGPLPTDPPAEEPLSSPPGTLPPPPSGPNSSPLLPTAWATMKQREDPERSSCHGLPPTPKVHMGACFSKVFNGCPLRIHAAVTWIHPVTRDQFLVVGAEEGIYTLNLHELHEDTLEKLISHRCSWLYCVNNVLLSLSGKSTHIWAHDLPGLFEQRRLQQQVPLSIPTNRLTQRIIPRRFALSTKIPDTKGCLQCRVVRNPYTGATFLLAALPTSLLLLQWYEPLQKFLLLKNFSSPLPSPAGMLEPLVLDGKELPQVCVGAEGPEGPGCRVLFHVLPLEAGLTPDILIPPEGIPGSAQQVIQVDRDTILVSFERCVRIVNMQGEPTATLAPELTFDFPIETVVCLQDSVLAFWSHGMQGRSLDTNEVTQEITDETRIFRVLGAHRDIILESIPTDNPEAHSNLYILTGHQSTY
Nature of the assay: Selectivity interaction (KinomeScan (DiscoverX)) EUB0001079a MAP4K2. The conditions noted are these: at 1 µM.

For assay [2], the target named is T2, Cyclin-dependent kinase-like 2 (Homo sapiens) (UniProt Q92772).
T2 sequence (whole entry): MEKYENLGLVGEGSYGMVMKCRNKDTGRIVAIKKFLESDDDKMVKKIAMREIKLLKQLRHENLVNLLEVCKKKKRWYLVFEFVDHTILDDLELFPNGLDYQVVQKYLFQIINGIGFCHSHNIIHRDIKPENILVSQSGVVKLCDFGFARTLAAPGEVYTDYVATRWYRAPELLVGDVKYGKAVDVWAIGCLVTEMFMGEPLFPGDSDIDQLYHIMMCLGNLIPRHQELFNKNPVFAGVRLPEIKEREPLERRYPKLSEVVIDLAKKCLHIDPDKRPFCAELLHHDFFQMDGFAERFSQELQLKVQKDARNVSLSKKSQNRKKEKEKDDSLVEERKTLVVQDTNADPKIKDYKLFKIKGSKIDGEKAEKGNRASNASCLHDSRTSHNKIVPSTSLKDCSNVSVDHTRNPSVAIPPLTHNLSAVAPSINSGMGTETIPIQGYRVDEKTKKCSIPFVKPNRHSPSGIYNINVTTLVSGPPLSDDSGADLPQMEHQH
The assay can be described thus: Selectivity interaction (KinomeScan (DiscoverX)) EUB0001049a CDKL2. As to conditions: at 1 µM.

In assay [3] the target is Non-receptor tyrosine-protein kinase TYK2 (Homo sapiens, UniProt P29597). Nature of the assay: Selectivity interaction (KinomeScan (DiscoverX)) EUB0001049a TYK2. As to conditions: at 1 µM.
Assay [4] has as its target Tyrosine-protein kinase FRK (Homo sapiens) (UniProt P42685). Nature of the assay: Selectivity interaction (SelectScreen profiling (Invitrogen)) EUB0000607a FRK. As to conditions: at 2 µM.
Assay [5] addresses T3, cGMP-dependent protein kinase 1 (Homo sapiens) (UniProt Q13976).
T3 sequence (whole entry): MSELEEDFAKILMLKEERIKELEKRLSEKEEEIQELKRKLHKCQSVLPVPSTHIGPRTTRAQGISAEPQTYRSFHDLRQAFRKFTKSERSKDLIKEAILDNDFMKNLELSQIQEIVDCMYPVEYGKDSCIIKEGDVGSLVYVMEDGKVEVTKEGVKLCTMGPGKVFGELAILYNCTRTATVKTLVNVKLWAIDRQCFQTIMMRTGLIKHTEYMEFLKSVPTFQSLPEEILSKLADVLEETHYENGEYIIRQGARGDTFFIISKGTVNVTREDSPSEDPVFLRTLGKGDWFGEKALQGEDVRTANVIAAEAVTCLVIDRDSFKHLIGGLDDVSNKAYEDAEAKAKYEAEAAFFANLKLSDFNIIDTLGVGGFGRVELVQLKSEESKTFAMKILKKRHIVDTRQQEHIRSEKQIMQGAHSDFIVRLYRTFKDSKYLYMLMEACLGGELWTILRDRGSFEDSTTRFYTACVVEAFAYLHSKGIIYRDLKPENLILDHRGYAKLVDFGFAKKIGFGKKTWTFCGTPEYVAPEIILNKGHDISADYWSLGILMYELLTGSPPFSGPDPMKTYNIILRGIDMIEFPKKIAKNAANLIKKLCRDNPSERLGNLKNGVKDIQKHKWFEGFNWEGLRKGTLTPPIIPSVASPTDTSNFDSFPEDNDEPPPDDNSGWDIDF
The assay can be described thus: Selectivity interaction (KinomeScan (DiscoverX)) EUB0000595a PRKG1. The conditions noted are these: at 10 µM.

Assay [6] deals with T4, Inhibitor of nuclear factor kappa-B kinase subunit alpha (Homo sapiens) (UniProt O15111).
T4 sequence (whole entry): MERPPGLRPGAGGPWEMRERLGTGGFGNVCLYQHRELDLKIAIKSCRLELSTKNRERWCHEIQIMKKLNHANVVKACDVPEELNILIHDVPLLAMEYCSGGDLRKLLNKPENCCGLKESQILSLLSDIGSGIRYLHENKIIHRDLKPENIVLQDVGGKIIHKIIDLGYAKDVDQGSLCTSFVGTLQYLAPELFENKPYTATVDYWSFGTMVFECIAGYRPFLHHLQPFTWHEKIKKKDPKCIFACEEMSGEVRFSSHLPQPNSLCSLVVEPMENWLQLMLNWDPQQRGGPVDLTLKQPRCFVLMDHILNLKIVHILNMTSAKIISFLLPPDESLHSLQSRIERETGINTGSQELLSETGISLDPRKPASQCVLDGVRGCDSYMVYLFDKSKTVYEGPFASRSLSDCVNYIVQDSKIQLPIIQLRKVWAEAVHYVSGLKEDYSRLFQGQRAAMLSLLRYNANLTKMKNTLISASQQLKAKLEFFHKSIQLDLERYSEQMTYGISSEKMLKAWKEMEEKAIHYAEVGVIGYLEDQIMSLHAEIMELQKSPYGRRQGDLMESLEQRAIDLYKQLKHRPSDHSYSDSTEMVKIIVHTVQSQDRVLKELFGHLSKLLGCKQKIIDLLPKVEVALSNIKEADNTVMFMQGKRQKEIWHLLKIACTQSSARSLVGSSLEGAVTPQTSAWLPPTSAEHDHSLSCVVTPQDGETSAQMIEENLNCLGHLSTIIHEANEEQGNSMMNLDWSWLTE
The assay can be described thus: Selectivity interaction (Kinase panel (KiNativ target engagement assay in Jurkat cells)) EUB0001635a CHUK. The class given is cell-based. The conditions noted are these: Selectivity number of off-targets 0.0, Selectivity number of targets 233.0, Source Knowledge https://www.sciencedirect.com/science/article/pii/S2451945619300674?via%3Dihub, at 1 µM.

Chain of Non-receptor tyrosine-protein kinase TYK2 (P29597 whole entry): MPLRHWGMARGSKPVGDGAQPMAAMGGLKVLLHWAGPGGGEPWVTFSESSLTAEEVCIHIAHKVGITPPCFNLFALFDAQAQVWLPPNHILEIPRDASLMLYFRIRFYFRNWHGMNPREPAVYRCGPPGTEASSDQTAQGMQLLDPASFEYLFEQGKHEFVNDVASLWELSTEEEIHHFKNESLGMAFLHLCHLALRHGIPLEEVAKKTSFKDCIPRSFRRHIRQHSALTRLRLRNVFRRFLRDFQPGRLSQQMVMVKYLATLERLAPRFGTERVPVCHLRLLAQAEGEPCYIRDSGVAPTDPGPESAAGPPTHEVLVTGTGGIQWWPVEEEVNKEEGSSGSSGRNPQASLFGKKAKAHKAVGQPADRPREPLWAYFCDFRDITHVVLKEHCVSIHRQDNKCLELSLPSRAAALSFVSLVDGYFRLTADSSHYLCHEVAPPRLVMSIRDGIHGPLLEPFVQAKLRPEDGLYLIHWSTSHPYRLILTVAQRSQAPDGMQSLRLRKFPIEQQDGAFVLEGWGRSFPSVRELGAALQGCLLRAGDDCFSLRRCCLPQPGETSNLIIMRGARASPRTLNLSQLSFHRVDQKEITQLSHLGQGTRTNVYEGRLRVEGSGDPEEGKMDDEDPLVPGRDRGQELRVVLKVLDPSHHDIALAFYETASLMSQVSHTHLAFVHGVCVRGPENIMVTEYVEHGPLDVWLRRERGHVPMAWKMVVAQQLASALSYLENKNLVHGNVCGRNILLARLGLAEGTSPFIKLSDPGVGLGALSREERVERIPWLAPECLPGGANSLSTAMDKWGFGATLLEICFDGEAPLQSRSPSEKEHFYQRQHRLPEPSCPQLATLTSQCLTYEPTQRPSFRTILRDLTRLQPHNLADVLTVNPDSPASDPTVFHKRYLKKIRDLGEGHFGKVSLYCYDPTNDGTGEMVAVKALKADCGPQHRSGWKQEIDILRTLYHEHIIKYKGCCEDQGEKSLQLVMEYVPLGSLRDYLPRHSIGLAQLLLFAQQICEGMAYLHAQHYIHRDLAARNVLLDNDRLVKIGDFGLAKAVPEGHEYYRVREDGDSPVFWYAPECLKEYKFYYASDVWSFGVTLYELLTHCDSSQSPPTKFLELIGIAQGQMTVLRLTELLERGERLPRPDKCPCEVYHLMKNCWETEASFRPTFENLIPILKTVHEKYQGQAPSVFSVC
Chain of Tyrosine-protein kinase FRK (Homo sapiens) (P42685 whole entry): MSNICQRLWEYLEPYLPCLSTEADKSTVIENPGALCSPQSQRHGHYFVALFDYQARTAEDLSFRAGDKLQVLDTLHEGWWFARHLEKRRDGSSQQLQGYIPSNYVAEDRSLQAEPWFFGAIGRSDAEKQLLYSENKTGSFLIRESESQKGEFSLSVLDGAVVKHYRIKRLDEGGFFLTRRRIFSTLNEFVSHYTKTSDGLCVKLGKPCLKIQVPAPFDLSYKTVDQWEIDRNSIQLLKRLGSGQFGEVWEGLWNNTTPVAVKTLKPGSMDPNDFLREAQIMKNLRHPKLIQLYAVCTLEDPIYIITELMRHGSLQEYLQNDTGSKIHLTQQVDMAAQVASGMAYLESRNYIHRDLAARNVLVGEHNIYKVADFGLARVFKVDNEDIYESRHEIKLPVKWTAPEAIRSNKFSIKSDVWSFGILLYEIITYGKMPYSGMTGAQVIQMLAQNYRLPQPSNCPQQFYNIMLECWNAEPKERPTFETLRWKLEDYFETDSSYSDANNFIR

In turn, `Nc1cnc(N2CCc3cc(S(=O)(=O)Nc4c(F)cc(Cl)cc4F)cc(N4CCCC4=O)c32)nc1` [TP-020n] gave a % of control in assay [1] of 90%.
For `COc1cc(Nc2nc(C)cc(-c3cnn4nc(OC)ccc34)n2)cc(C(F)(F)F)c1`, the values for the % of control in assay [2] and in assay [3] were 100% and 61%, respectively.
The molecule `CNC(=O)Nc1ccc(-c2nc(N3CC4CCC(C3)O4)c3cnn(C4CCC5(CC4)OCCO5)c3n2)cc1` displayed a % of inhibition in assay [4] of 3%.
In assay [5], `COCC(=O)NC/C=C/c1ccc2ncnc(Nc3ccc(Oc4ccc(C)nc4)c(C)c3)c2c1` [CP-724714] displayed a % of control of 100%.
As for `C=CC(=O)Nc1ccc(C(=O)Nc2[nH]nc3c2CN(C(=O)N[C@H](CN(C)C)c2ccccc2)C3(C)C)cc1`, the % of engagement in assay [6] was -7.3%.

(Values after ChEMBL document CHEMBL5465560, “Selectivity Literature for EUbOPEN Chemogenomic Library” (2024).)
